Values joined by “and” are separate entries in the source; they are usually repeats but may differ in a detail not shown here. Equal entries are not always repeated. Inconclusive results and toxic doses are left out. Cut-off read from the data, not from the text of the source: active = T/C of 150% or more; inactive = T/C below 125%.
System: L1210 leukemia ip in BDF1 mice, survival T/C
Assay: NCI In Vivo Anticancer Drug Screen. Data for tumor model L1210 Leukemia (intraperitoneal) in B6D2F1 (BDF1) mice
Conditions: endpoint: mean survival time, higher = longer survival
Method in brief: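 Read-out is survival time, reported as the treated-group measurement over the vehicle-control measurement.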

[1] = dose: 100.0 mg/kg/injection, schedule: Q04DX002 (ip), vehicle: Klucel (hydroxypropylcellulose) (HPC)
[2] = dose: 200.0 mg/kg/injection, schedule: Q04DX002 (ip), vehicle: Klucel (hydroxypropylcellulose) (HPC)
[3] = dose: 400.0 mg/kg/injection, schedule: Q04DX002 (ip), vehicle: Klucel (hydroxypropylcellulose) (HPC)
[4] = dose: 100.0 mg/kg/injection, schedule: Q01DX001 (ip), vehicle: saline
[5] = dose: 200.0 mg/kg/injection, schedule: Q01DX001 (ip), vehicle: saline
[6] = dose: 400.0 mg/kg/injection, schedule: Q01DX001 (ip), vehicle: saline
[7] = dose: 100.0 mg/kg/injection, schedule: Q01DX009 (ip), vehicle: saline with Tween-80
[8] = dose: 100.0 mg/kg/injection, schedule: Q04DX003 (ip), vehicle: saline with Tween-80
[9] = dose: 200.0 mg/kg/injection, schedule: Q04DX003 (ip), vehicle: saline with Tween-80
[10] = dose: 400.0 mg/kg/injection, schedule: Q04DX003 (ip), vehicle: saline with Tween-80
[11] = dose: 50.0 mg/kg/injection, schedule: Q01DX001 (ip), vehicle: saline
[12] = dose: 100.0 mg/kg/injection, schedule: Q01DX009 (ip), vehicle: Klucel (hydroxypropylcellulose) (HPC)
[13] = dose: 200.0 mg/kg/injection, schedule: Q01DX009 (ip), vehicle: Klucel (hydroxypropylcellulose) (HPC)
[14] = dose: 400.0 mg/kg/injection, schedule: Q01DX009 (ip), vehicle: Klucel (hydroxypropylcellulose) (HPC)

Measured: T/C

C1CCC(N2CN(C3CCCCC3)CN(C3CCCCC3)C2)CC1
inactive: [1] 97 % of control | [2] 106 % of control | [3] 115 % of control

C#CC(C)(O)CC(C)C (stereo unspecified)
inactive: [4] 100 % of control | [5] 100 % of control

O=C(O)/C=C/C(=O)Nc1ccc2c(c1)Cc1cc(NC(=O)C(F)(F)F)ccc1-2
inactive: dose: 25.0 mg/kg/injection, schedule: Q01DX009 (ip), vehicle: saline 105 % of control | dose: 25.0 mg/kg/injection, schedule: Q04DX003 (ip), vehicle: saline 102 % of control | dose: 50.0 mg/kg/injection, schedule: Q01DX009 (ip), vehicle: saline 101 % of control | dose: 50.0 mg/kg/injection, schedule: Q04DX003 (ip), vehicle: saline 96 % of control | [4] 90 % of control | dose: 100.0 mg/kg/injection, schedule: Q01DX009 (ip), vehicle: saline 100 % of control | dose: 100.0 mg/kg/injection, schedule: Q04DX003 (ip), vehicle: saline 98 % of control | [5] 90 % of control

CCC(/C=N/N=C(N)N)OC (stereo unspecified)
inactive: dose: 2.0 mg/kg/injection, schedule: Q01DX Z (oral), vehicle: saline 103 % of control | dose: 4.0 mg/kg/injection, schedule: Q01DX Z (oral), vehicle: saline 101 % of control | dose: 8.0 mg/kg/injection, schedule: Q01DX Z (oral), vehicle: saline 106 % of control | dose: 16.0 mg/kg/injection, schedule: Q01DX Z (oral), vehicle: saline 100 % of control | dose: 32.0 mg/kg/injection, schedule: Q01DX Z (oral), vehicle: saline 110 % of control | dose: 64.0 mg/kg/injection, schedule: Q01DX Z (oral), vehicle: saline 100 % of control | dose: 128.0 mg/kg/injection, schedule: Q01DX Z (oral), vehicle: saline 104 % of control and 113 % of control | dose: 256.0 mg/kg/injection, schedule: Q01DX Z (oral), vehicle: saline 98 % of control and 115 % of control

Cc1cccc(N2C(N)=NC(N)=NC2(C)C)c1
inactive: dose: 25.0 mg/kg/injection, schedule: Q04DX003 (ip), vehicle: Klucel (hydroxypropylcellulose) (HPC) 103 % of control | dose: 50.0 mg/kg/injection, schedule: Q04DX003 (ip), vehicle: Klucel (hydroxypropylcellulose) (HPC) 124 % of control | dose: 75.0 mg/kg/injection, schedule: Q01DX001 (ip), vehicle: saline 101 % of control

CCC(CC)OCCN1CCN(CCCN2c3ccccc3Sc3ccc(C(F)(F)F)cc32)CC1
inactive: dose: 0.39 mg/kg/injection, schedule: Q01DX009 (ip), vehicle: saline with Tween-80 107 % of control | dose: 0.78 mg/kg/injection, schedule: Q01DX009 (ip), vehicle: saline with Tween-80 107 % of control | dose: 1.56 mg/kg/injection, schedule: Q01DX009 (ip), vehicle: saline with Tween-80 95 % of control | dose: 1.56 mg/kg/injection, schedule: Q04DX003 (ip), vehicle: saline with Tween-80 97 % of control | dose: 3.12 mg/kg/injection, schedule: Q04DX003 (ip), vehicle: saline with Tween-80 96 % of control | dose: 6.25 mg/kg/injection, schedule: Q04DX003 (ip), vehicle: saline with Tween-80 112 % of control | dose: 12.5 mg/kg/injection, schedule: Q04DX003 (ip), vehicle: saline with Tween-80 97 % of control

CNC(=O)OCCO
inactive: [4] 100 % of control | [5] 101 % of control | [6] 97 % of control

CCN(C(=O)Nc1cccc(Cl)c1)c1ccccc1
inactive: [7] 90 % of control | [8] 96 % of control | dose: 200.0 mg/kg/injection, schedule: Q01DX009 (ip), vehicle: saline with Tween-80 90 % of control | [9] 97 % of control | dose: 400.0 mg/kg/injection, schedule: Q01DX009 (ip), vehicle: saline with Tween-80 86 % of control | [10] 97 % of control

CCC1=C(c2ccc(OC)cc2)CCC(C(=O)O)C1C (stereo unspecified)
inactive: dose: 6.0 mg/kg/injection, schedule: Q01DX Z (ip), vehicle: saline 100 % of control | dose: 12.0 mg/kg/injection, schedule: Q01DX Z (ip), vehicle: saline 96 % of control | dose: 25.0 mg/kg/injection, schedule: Q01DX Z (ip), vehicle: saline 102 % of control | dose: 50.0 mg/kg/injection, schedule: Q01DX Z (ip), vehicle: saline 100 % of control | dose: 100.0 mg/kg/injection, schedule: Q01DX Z (ip), vehicle: saline 102 % of control | dose: 200.0 mg/kg/injection, schedule: Q01DX Z (ip), vehicle: saline 100 % of control | dose: 400.0 mg/kg/injection, schedule: Q01DX Z (ip), vehicle: saline 110 % of control | dose: 800.0 mg/kg/injection, schedule: Q01DX Z (ip), vehicle: saline 98 % of control and 120 % of control

COc1cc2c(cc1OC)C1CCc3cc4c(cc3C1N=C2)OCO4 (stereo unspecified)
inactive: dose: 80.0 mg/kg/injection, schedule: Q01DX009 (ip), vehicle: saline 96 % of control | dose: 120.0 mg/kg/injection, schedule: Q01DX009 (ip), vehicle: saline 98 % of control | dose: 240.0 mg/kg/injection, schedule: Q01DX009 (ip), vehicle: saline 98 % of control | dose: 400.0 mg/kg/injection, schedule: Q01DX009 (ip), vehicle: saline 91 % of control

N=C(N)S(=O)O
inactive: [7] 104 % of control

CCN(CC)CCCC(C)Nc1ccnc2c1ccc1ccccc12 (stereo unspecified)
inactive: [11] 98 % of control | [4] 101 % of control | [5] 106 % of control | [6] 112 % of control

N#CCc1ccc(C(=O)O)cc1
inactive: dose: 100.0 mg/kg/injection, schedule: Q01DX001 (ip), vehicle: carboxymethylcellulose (CMC) 106 % of control | dose: 200.0 mg/kg/injection, schedule: Q01DX001 (ip), vehicle: carboxymethylcellulose (CMC) 92 % of control

O=C1C=CC2C3C=CC(CC3)C12 (stereo unspecified)
inactive: dose: 50.0 mg/kg/injection, schedule: Q04DX002 (ip), vehicle: Klucel (hydroxypropylcellulose) (HPC) 89 % of control | [1] 93 % of control

CCc1ccc(Nc2c([N+](=O)[O-])cc(C)cc2[N+](=O)[O-])cc1
inactive: [12] 97 % of control | dose: 100.0 mg/kg/injection, schedule: Q04DX003 (ip), vehicle: Klucel (hydroxypropylcellulose) (HPC) 103 % of control | [13] 105 % of control | dose: 200.0 mg/kg/injection, schedule: Q04DX003 (ip), vehicle: Klucel (hydroxypropylcellulose) (HPC) 108 % of control | [14] 113 % of control | dose: 400.0 mg/kg/injection, schedule: Q04DX003 (ip), vehicle: Klucel (hydroxypropylcellulose) (HPC) 102 % of control

CC(=O)Oc1c2ccsc2cc2sccc12
inactive: dose: 100.0 mg/kg/injection, schedule: Q01DX001 (ip), vehicle: saline with Tween-80 96 % of control | dose: 200.0 mg/kg/injection, schedule: Q01DX001 (ip), vehicle: saline with Tween-80 94 % of control | dose: 400.0 mg/kg/injection, schedule: Q01DX001 (ip), vehicle: saline with Tween-80 94 % of control

COCCOC(=O)c1ccc(C(=N)N)cc1
inactive: [4] 106 % of control | [5] 100 % of control

O=C(N/N=C/c1cccc2ccccc12)c1ccc(O)cc1
inactive: [1] 100 % of control | [2] 100 % of control | [3] 103 % of control

NC(=O)c1ccc([N+](=O)[O-])cc1C(N)=O
inactive: dose: 25.0 mg/kg/injection, schedule: Q01DX001 (ip), vehicle: saline 111 % of control | [11] 97 % of control | [4] 104 % of control

COc1cccc(N2C(=O)C=CC2=O)c1
inactive: dose: 1.56 mg/kg/injection, schedule: Q01DX009 (ip), vehicle: Klucel (hydroxypropylcellulose) (HPC) 97 % of control | dose: 3.12 mg/kg/injection, schedule: Q01DX009 (ip), vehicle: Klucel (hydroxypropylcellulose) (HPC) 97 % of control

NC(=O)CCC(NC(=O)OCc1ccccc1)C(=O)O (stereo unspecified)
inactive: [12] 91 % of control | [1] 97 % of control | [13] 112 % of control | [2] 97 % of control | [14] 109 % of control | [3] 105 % of control

O=c1[nH][nH]c(=O)c2cc3ccccc3cc12
inactive: dose: 62.5 mg/kg/injection, schedule: Q01DX009 (ip), vehicle: Klucel (hydroxypropylcellulose) (HPC) 98 % of control | dose: 125.0 mg/kg/injection, schedule: Q01DX009 (ip), vehicle: Klucel (hydroxypropylcellulose) (HPC) 105 % of control

O=C1Cc2cccc3cccc1c23
inactive: [8] 102 % of control | [9] 106 % of control | [10] 104 % of control
